US7968526B2, “Antisense oligonucleotides directed to ribonucleotide reductase R2 and uses thereof in the treatment of cancer” (Lorus Therapeutics Inc., priority 2003, dated 2011)
“Also recorded” adds a separate entry of the source.

Columns and labels:
Assay type in all cases: in vivo, human cells in mice
[1] = test system: Hep G2 human liver cancer cells; experiment: HepG2 liver tumour growth in CD-1 nude mice (3.7)
Experimental: Treatments lasted for 14 days thereafter. Antitumour activities were estimated by the inhibition of tumour volume, which was measured with a caliper on four different occasions over the treatment period. Each point represents mean tumour volume calculated from 5 animals per experimental group. […] Control animals (control) received saline alone for the same period. At the end of the treatments, the animals were sacrificed, tumours were excised and their weights were measured. Each bar represents mean tumour weight calculated from 6 animals per experimental group. […] Treatments lasted for 24 days thereafter. Antitumour activities were estimated by the inhibition of tumour volume, which was measured with a caliper at two-day intervals over the treatment period. Each point represents mean tumour volume calculated from 4 animals per experimental group. […] Treatments lasted for 24 days thereafter. Antitumour activities were estimated by the inhibition of tumour volume, which was measured with a caliper at two-day intervals over the treatment period. Each point represents mean tumour volume calculated from 4 animals per experimental group. […] Treatments lasted for 22 days thereafter. […] Each point represents mean tumour volume calculated from 5 animals per experimental group. […] Treatments lasted for 14 days thereafter. Antitumour activities were estimated by the inhibition of tumour volume, which was measured with a caliper on four different occasions over 16-day period. Each point represents mean tumour volume calculated from 5 animals per experimental group. […] Two different batches of SEQ ID NO:1, synthesized at different times (designated as batch 1 and batch 2), were tested to detect possible batch-specific effects. […] Treatments lasted for 34 days thereafter. Antitumour activities were estimated by the inhibition of tumour volume, which was measured with a caliper at two-day intervals over the treatment period. Each point represents mean tumour volume calculated from 5 animals per experimental group. […] Treatments lasted for 30 days thereafter. Antitumour activities were estimated by the inhibition of tumour volume, which was measured with a caliper at various time intervals over the span of 30 days. Each point represents mean tumour volume calculated from 6 animals per experimental group. […] All treatments were stopped at day 36. Antitumour activities were estimated by the inhibition of tumour volume, which was measured with a caliper. Each point represents mean tumour volume calculated from 5 animals per experimental group. […] All treatments were stopped at day 52. […] Antitumour activities were estimated by the inhibition of tumour volume, which was measured with a caliper.

[2] = test system: human tumour cell xenografts; experiment: Human tumour cell xenografts in mice, compiled tumour weights (FIG. 29)
Experimental: CD-1 athymic female nude mice, BALB/c nu/nu nude mice, SCID, and SCID beige mice were purchased from Charles River Laboratories (Montreal, Canada) and experiments were typically initiated when the mice were 6-7 weeks old. Human tumour cells were grown in appropriate growth medium and 3×10^6−1×10^7 cells suspended in 100 μl of PBS were subcutaneously injected into the right flank of the animals with a 23 gauge needle (cell number indicated in the figure legends). Each experimental group typically contained 10 mice. After the size of tumour reached a mean tumour volume of 50-100 mm^3, treatment was initiated. Antisense oligonucleotides (dissolved in saline) were administered by bolus infusion into the tail vein of animal every other day at the indicated dose. Anti-tumour activity was estimated by the measurement of tumour volume with a calliper at two-three day intervals. Tumour volume was calculated by a formula L×W×H/2, where L indicates length, W indicates width and H indicates height. Within 24 hours after the last treatment, the animals were sacrificed and tumour and body weights were measured.
Each data point represents tumour weight and standard error. […]

[3] = test system: SU.86.86 human pancreatic cancer cells; experiment: SU.86.86 pancreatic tumour growth in CD-1 nude mice (3.6)
Experimental: (§1) Treatments lasted for 14 days thereafter. Antitumour activities were estimated by the inhibition of tumour volume, which was measured with a caliper on four different occasions over the treatment period. Each point represents mean tumour volume calculated from 5 animals per experimental group. […] Control animals (control) received saline alone for the same period. At the end of the treatments, the animals were sacrificed, tumours were excised and their weights were measured. Each bar represents mean tumour weight calculated from 6 animals per experimental group. […] Treatments lasted for 24 days thereafter. Antitumour activities were estimated by the inhibition of tumour volume, which was measured with a caliper at two-day intervals over the treatment period. Each point represents mean tumour volume calculated from 4 animals per experimental group. […] Treatments lasted for 24 days thereafter. Antitumour activities were estimated by the inhibition of tumour volume, which was measured with a caliper at two-day intervals over the treatment period. Each point represents mean tumour volume calculated from 4 animals per experimental group. […] Each point represents mean tumour volume calculated from 5 animals per experimental group. […] Antitumour activities were estimated by the inhibition of tumour volume, which was measured with a caliper on four different occasions over 16-day period. Each point represents mean tumour volume calculated from 5 animals per experimental group. […] Antitumour activities were estimated by the inhibition of tumour volume, which was measured with a caliper at two-day intervals over the treatment period. Each point represents mean tumour volume calculated from 5 animals per experimental group. […] Antitumour activities were estimated by the inhibition of tumour volume, which was measured with a caliper at various time intervals over the span of 30 days. Each point represents mean tumour volume calculated from 6 animals per experimental group. […] Antitumour activities were estimated by the inhibition of tumour volume, which was measured with a caliper. […]

[4] = test system: MDA-MB435-To.1 human Taxol-resistant breast adenocarcinoma cells; experiment: MDA-MB435-To.1 Taxol-resistant breast adenocarcinoma, fat pad, SCID mice (2.5)
Experimental: BxPC-3 is a gemcitabine resistant call line. […] Gemcitabine was administered intravenously every three days at a dose of 100 mg/kg. Antitumour activities were estimated by the inhibition of tumour volume, which was measured with caliper. Each point represents mean tumour volume calculated from 10 animals per experimental group. […] Hela S3 is a hydroxyurea resistant cell line. […] Hydroxyurea was administered intraperitoneally every day at a dose of 250 mg/kg for 10 days. Cisplatin was administered intravenously once a week for three weeks at a dose of 4 mg/kg. Antitumour activities were estimated by the inhibition of tumour volume, which was measured with caliper. Each point represents mean tumour volume calculated from 10 animals per experimental group. […] Cisplatin was administered intravenously once a week for three weeks at a dose of 4 mg/kg. Taxol was administered intravenously once a week for three weeks at a dose of 10 mg/kg. Antitumour activities were estimated by the inhibition of tumour volume, which was measured with caliper. Each point represents mean tumour volume calculated from 10 animals per experimental group. […] Taxol was administered i.p. once a week at a dose of 10 mg/kg. Antitumour activities were estimated by the inhibition of tumour volume (FIG. 12A), which was measured with calipers. Each point represents mean tumour volume calculated from 10 animals per experimental group. Animals were sacrificed and tumour weights taken at the end of the study (FIG. 12C). […] Cisplatin was administered intravenously once a week for four weeks at a dose of 4 mg/kg. Taxol was administered intravenously once a week for four weeks at a dose of 20 mg/kg. Antitumour activities were estimated by the inhibition of tumour volume, which was measured with caliper. Each point represents mean tumour volume calculated from 9-10 animals per experimental group. […] Cisplatin was administered intravenously once a week for four weeks at a dose of 4 mg/kg. Antitumour activities were estimated by the inhibition of tumour volume, which was measured with caliper. Each point represents mean tumour volume calculated from 10 animals per experimental group. At the end of the study the animals were sacrificed and tumours weighed. […] Taxol was administered i.p. once a week at a dose of 10 mg/kg. Anti-tumour activity was estimated by the inhibition of tumour volume, which was measured with caliper. Each point represents mean tumour volume calculated from 10 animals per experimental group. In addition animals were sacrificed and tumour weights taken at the end of the study. […] CPT-11 was administered i.p. for 5 days at a dose of 20 mg/kg/day. Antitumour activities were estimated by the inhibition of tumour volume, which was measured with caliper. Each point represents mean tumour volume calculated from 10 animals per experimental group. Tumour weights were measured after animals were sacrificed at the end of the treatment. These cells are not resistant to CPT-11 which was used as a positive control.

[5] = test system: SK-OV-3 human ovarian cancer cells; experiment: SK-OV-3 ovary tumour growth in Balb/c nude mice (3.4)
Experimental: as §1

## 5′-GGCTAAATCGCTCCACCAAG-3′ (all phosphorothioate, sugars by position and methylation of C not given here) [SEQ ID NO: 1, fully phosphorothioated antisense oligonucleotide that hybridizes to the coding region of R2 mRNA]
[1]; Hep G2, CD-1 nude mice, 2.5 mg/kg i.v. every day, 30 days
  Inhibitory effect on tumour growth (tumour volume, FIG. 20): significant inhibitory effects on the growth of human hepatoma cells
[1]; Human Liver Carcinoma
  Inhibition of tumour weight: ~65%
[1]; Human Liver Carcinoma in CD-1 nude mice, Day 30 after tumour implantation
  Inhibition of tumour size: Inhibition of tumour size by 45% in CD-1 nude
[2]; all cancer cell lines tested
  Effect on tumour growth and endpoint weight: significant decrease in tumour growth (volume over time) and endpoint weight
[2]; range of human tumour xenografts, 2.5 mg/kg to 10 mg/kg i.v. every second day, all cases
  p, difference in tumour weight between control and oligonucleotide treated groups: < 0.05
[3]; Human Pancreatic Adenocarcinoma
  Inhibition of tumour weight: ~65%
[3]; Human Pancreatic Adenocarcinoma, up to 39 days after tumour implantation
  Inhibition of tumour growth: Complete inhibition of tumour growth up to 39
[3]; SU.86.86, CD-1 nude mice, 10 mg/kg i.v. every other day, 34 days, two batches
  Inhibitory effect on tumour growth (tumour volume, FIG. 19): strong inhibitory effects on the growth of human pancreatic carcinoma
[4]; MDA-MB435-To.1 (breast), Taxol resistant, SCID, SEQ ID NO:1 10 mg/kg i.v. every other day 15 times, Taxol 20 mg/kg, Cisplatin 4 mg/kg i.v. weekly x4
  Tumour weight as % of saline control: 42%
[4]; MDA-MB435-To.1 Taxol-resistant, SCID mice, SEQ ID NO:1 10 mg/kg i.v. every other day, Cisplatin 4 mg/kg, Taxol 20 mg/kg i.v. weekly
  Antitumour effect (FIG. 13): significant reduction of tumour weight compared to saline control; also recorded: superior to the inhibitory effects observed with Cisplatin
[5]; Human Ovary Adenocarcinoma
  Inhibition of tumour weight: tumour weight of approximately 50%
[5]; Human Ovary Adenocarcinoma in Balb/c Nu-Nu mice, Days 19 to 25 after tumour implantation
  Inhibition of tumour size: Inhibition of tumour size by approximately 35%
[5]; SK-OV-3, Balb/c nude mice, 10 mg/kg i.v. every other day, 22 days
  Inhibitory effect on tumour growth (tumour volume, FIG. 18C): statistically significant inhibitory effects on the growth of human ovary adenocarcinoma cells
